Results published in ChEMBL document CHEMBL1201862, “PubChem BioAssay data set” (2004).
The source made the active and inactive calls.

What was measured:
[1] = target: Delta-type opioid receptor (Homo sapiens, UniProt P41143); test: Counterscreen for agonists of heterodimerization of the mu 1 (OPRM1) and delta 1 (OPRD1) opioid receptors: Luminescence-based cell-based high throughput dose response assay to identify agonists of OPRD1 homodimerization. [Related pubchem assays (depositor defined):AID504326, AID504355, AID504692, AID504904, AID504905]; assay type: functional
Sequence of Delta-type opioid receptor (P41143 whole entry): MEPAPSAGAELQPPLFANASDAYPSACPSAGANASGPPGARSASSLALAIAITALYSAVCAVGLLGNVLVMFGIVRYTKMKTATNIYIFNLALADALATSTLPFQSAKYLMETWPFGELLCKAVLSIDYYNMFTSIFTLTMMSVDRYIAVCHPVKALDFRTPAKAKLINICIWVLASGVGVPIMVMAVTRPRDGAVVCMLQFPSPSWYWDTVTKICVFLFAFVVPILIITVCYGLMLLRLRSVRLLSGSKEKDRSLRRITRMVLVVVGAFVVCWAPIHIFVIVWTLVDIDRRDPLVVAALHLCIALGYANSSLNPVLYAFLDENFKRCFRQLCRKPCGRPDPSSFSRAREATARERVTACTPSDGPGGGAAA

[2] = target: Mu-type opioid receptor (Homo sapiens, UniProt P35372); test: Counterscreen for agonists of heterodimerization of the mu 1 (OPRM1) and delta 1 (OPRD1) opioid receptors: Luminescence-based cell-based high throughput dose response assay to identify agonists of OPRM1 homodimerization.; assay type: functional;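 also: U2OS cells expressing OPRM1 and beta-arrestin as split beta-galactosidase partners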
Sequence of Mu-type opioid receptor (P35372 whole entry): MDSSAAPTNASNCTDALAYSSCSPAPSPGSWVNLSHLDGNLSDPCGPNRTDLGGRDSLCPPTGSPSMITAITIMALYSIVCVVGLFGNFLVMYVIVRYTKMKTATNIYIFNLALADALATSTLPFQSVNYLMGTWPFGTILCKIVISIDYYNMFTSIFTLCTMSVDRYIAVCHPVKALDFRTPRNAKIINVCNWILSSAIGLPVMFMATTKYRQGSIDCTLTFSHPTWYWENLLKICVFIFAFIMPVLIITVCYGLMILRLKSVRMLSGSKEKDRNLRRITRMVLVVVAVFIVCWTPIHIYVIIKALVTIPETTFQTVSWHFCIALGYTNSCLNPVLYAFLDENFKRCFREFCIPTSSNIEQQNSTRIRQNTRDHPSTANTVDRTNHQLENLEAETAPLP

[3] = target: 5-hydroxytryptamine receptor 5A (Homo sapiens, UniProt P47898); test: Counterscreen for agonists of OPRM1-OPRD1 heterodimerization: luminescence-based cell-based high throughput dose response assay to identify agonists of 5-hydroxytryptamine (serotonin) 5A receptor (HTR5A). [Related pubchem assays (depositor defined):AID504326, AID504355, AID504692, AID504904, AID504905]; assay type: functional
Sequence of 5-hydroxytryptamine receptor 5A (P47898 whole entry): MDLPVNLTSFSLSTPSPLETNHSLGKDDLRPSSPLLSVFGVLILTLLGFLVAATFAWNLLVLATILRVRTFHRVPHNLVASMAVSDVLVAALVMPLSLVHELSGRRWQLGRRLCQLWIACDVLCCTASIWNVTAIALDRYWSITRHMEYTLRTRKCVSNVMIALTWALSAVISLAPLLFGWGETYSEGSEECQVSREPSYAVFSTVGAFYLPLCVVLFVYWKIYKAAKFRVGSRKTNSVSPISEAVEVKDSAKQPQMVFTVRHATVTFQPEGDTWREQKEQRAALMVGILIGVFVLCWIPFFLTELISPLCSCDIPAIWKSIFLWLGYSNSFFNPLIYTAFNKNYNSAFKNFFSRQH

[4] = system: H4; test: Luminescence Cell-Based Dose Response HTS to Identify Activators of 5'UTR Stem-Loop Driven Prion Protein mRNA Translation in H4 Neuroglioblastoma Cells. [Related pubchem assays: 1829 (Project Summary), 1814 (Primary HTS)]; assay type: functional; settings: Homo sapiens
[5] = target: T1, Heat shock factor protein 1 (Mus musculus, UniProt P38532); test: decrease of HSF1-responsive luciferase luminescence – cell-based, NIH3T3, dose retest, confirmation (AID 2382); assay type: functional;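 also: NIH3T3 fibroblasts with HSF1-driven luciferase reporter stressed by proteasome inhibitor MG132; luminescence from HSF1-driven luciferase expression after 8 hours of MG132 stress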
T1 sequence (P38532 whole entry): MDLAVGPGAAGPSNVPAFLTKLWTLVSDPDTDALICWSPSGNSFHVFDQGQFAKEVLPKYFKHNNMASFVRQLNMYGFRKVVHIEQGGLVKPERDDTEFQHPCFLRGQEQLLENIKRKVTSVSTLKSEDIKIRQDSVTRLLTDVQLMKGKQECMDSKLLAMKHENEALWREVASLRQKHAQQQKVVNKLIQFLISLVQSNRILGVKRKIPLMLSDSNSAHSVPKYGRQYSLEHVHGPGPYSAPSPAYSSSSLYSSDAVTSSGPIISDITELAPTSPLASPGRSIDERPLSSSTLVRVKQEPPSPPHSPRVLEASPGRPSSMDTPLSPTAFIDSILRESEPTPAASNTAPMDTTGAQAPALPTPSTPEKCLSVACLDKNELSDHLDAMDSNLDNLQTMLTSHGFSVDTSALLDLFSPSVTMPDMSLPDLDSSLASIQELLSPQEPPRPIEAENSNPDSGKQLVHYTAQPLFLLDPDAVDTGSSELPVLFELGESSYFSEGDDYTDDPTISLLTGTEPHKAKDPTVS

[6] = target: T2, Protein Tat (Human immunodeficiency virus type 1 group M subtype B (isolate HXB2)(HIV-1), UniProt P04608); assay type: functional;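 also: tat binding to TAR RNA read out by fluorescence polarization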
T2 sequence (P04608 whole entry): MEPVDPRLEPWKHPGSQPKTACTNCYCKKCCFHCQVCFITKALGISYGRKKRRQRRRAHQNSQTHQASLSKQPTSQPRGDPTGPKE

[7] = target: T3, Mannose-6-phosphate isomerase (Homo sapiens, UniProt P34949); test: MPI inhibition at elevated mannose 6-phosphate – biochemical, fluorescence intensity, high mannose 6-phosphate, primary screen (AID 1220)
T3 sequence (P34949 whole entry): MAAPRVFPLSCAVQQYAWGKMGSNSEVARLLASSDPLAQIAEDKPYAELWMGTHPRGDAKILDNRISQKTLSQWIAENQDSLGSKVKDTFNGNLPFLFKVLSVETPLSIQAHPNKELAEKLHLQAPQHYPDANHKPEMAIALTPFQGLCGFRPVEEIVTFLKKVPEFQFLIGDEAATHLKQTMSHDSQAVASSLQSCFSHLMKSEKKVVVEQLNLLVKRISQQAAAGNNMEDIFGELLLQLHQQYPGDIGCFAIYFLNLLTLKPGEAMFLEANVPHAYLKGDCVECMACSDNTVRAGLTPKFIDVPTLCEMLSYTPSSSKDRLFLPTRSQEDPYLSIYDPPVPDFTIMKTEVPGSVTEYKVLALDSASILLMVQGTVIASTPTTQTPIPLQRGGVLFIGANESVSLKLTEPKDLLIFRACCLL

[8] = target: Glucose-6-phosphate 1-dehydrogenase (Homo sapiens, UniProt P11413); test: inhibition of Homo sapiens G6PD, dose series – biochemical, fluorescence, selectivity assay for P. falciparum G6PD inhibitor project, dose response (AID 504792); assay type: functional
Sequence of Glucose-6-phosphate 1-dehydrogenase (P11413 whole entry): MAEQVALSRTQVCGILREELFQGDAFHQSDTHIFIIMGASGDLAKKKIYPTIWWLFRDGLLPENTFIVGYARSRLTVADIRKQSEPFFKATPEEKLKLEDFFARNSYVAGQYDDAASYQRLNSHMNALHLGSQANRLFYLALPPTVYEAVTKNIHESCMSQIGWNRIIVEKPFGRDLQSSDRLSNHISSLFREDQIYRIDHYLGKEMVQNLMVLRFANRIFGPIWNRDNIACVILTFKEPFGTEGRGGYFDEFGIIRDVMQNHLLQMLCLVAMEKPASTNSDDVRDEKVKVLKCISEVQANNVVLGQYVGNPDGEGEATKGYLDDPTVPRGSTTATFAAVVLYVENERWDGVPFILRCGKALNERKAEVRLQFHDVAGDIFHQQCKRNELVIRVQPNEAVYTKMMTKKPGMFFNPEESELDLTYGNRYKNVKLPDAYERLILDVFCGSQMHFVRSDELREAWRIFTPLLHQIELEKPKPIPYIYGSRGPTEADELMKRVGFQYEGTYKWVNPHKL

[9] = viability loss in THP-1 monocytes – THP-1 cells, cytotoxicity control for Vif-APOBEC3G degradation inhibitor project, dose response (AID 1117359); assay type: functional; settings: THP-1

Row | SMILES | EC50 [1] | EC50 [2] | EC50 [3] | EC50 [4] | EC50 [5] | IC50 [6] | IC50 [7] | IC50 [8] | CC50 [9]
1 | CC1[C@H]2Cc3ccc(O)cc3[C@]1(C)CCN2C (stereo partly drawn) | > 92.4 µM (inactive) | > 92.4 µM (inactive) | > 92.4 µM (inactive) |  |  |  |  |  | 
2 | Cc1cc(/C=C2/C(=O)NN(c3ccccc3)C2=O)c(C)n1-c1ccc(O)cc1 | 9.3 µM (active) | > 92.5 µM (inactive) | > 92.5 µM (inactive) | < 0.1 µM (active) | 4.81 µM (active) |  |  |  | 
3 | CCOc1ccc(CNc2ccc(N3CCCC3)cc2)cc1 |  |  |  |  |  | 75.3 µM (inconclusive) | > 50 µM (not active) | > 80 µM (inactive) | > 40 µM (active)
4 | O=C(COC(=O)c1cnccn1)c1ccc([N+](=O)[O-])cc1 |  |  |  |  |  |  |  | > 80 µM (inactive) | 
